Data reported in paper PMC6916368, “Cell‐Based Optimization of Covalent Reversible Ketoamide Inhibitors Bridging the Unprimed to the Primed Site of the Proteasome β5 Subunit” (Chemmedchem, 2019).

Legend:
[1] = system: MV4‐11 cells; assay: Cell viability endpoint assay (Celltiter Blue, 72 h); type: cell-based; conditions: Homo sapiens, MV4-11, mean±SD from two independent experiments
Experimental: Cell lines. MV4‐11 (ACC 102), Jurkat (ACC 282) and THP‐1 (ACC 16) cells were obtained from DSMZ and maintained at 37 °C and 5 % CO2 at densities between 0.2–1×10^6 cells per mL in RMPI‐1640 medium supplemented with 10 % FBS, L‐glutamine (2 mM) and penicillin/streptomycin.
Cell viability endpoint assay. For the determination of cytotoxicity of proteasome inhibitors 50.000 cells per well were plated in 90 μl RPMI‐1640 medium supplemented with 0.1 % FBS and incubated overnight at 37 °C and 5 % CO2. Inhibitors were serially diluted in RPMI‐1640 medium as 10‐fold stocks and added to cells giving the final concentration (1 nM to 10 μM, Figure S2–S4) and incubated for 72 h at 37 °C and 5 % CO2. Cell viability was determined using the Celltiter Blue assay (Promega) by adding 20 μl of reagent, incubation for 120 minutes at 37 °C and 5 % CO2 and fluorescent read‐out using a Tecan M1000 microplate reader. Dose‐response curves were fitted to the equation “Y=Bottom+(Top‐Bottom)/(1+10^(X−L°^gIC50))” using GraphPad Prism 7.02. IC50 values are determined from technical triplicates as mean value of two independent experiments. Standard deviations (Table S1) as well as dose response curves (SI chapter 2b) are given in the supplementary information.

[2] = biological target: T1, β5c subunit of isolated human 20S proteasome (Homo sapiens, UniProt P28074); assay: Proteasome inhibition assay (20 S Proteasome Assay Kit, Suc‐LLVY‐AMC); type: biochemical
T1 construct: purchased Enzo Life Sciences
Experimental: (§1) Proteasome inhibition assay. […] The 20 S Proteasome Assay Kit for Drug Discovery was used according to the supplier's protocol using Suc‐LLVY‐AMC (β5), Bz‐VGR‐AMC (β2) or Z‐LLE‐AMC (β1) as substrates (Enzo Life Sciences). Single point measurements of residual activity of proteasome activity were performed at a final concentration of 100 nM (n=3, β5c, β5i) or 1 μM (n=1, β1c, β2c, β5c, β5i, SI chapter 2a, Table S1). […] Inhibitors were prepared in 2‐fold concentration (cfinal=100 nM) and added to proteasomes (mfinal=200 ng/well). After 30 min incubation, substrate was added (cfinal=100 μM), incubated for 60 minutes and fluorescence was read using a Tecan M1000 microplate reader. […] IC50 values were determined from technical duplicates as mean value of three independent experiments.

[3] = biological target: T2, β5i subunit of isolated human 20S proteasome (Homo sapiens, UniProt P28062); assay: as above; type: biochemical
T2 construct: purchased Enzo Life Sciences
Experimental: as §1

[4] = biological target: T3, β2c subunit of isolated human 20S proteasome (Homo sapiens, UniProt Q99436); assay: Proteasome inhibition assay (20 S Proteasome Assay Kit, Bz‐VGR‐AMC); type: biochemical; conditions: c = 1 µM, n=1; read-out: Inhibition cCP β2
T3 construct: purchased Enzo Life Sciences
Experimental: Proteasome inhibition assay. Bortezomib (Selleckchem) and carfilzomib (MedChemExpress) were purchased and used without further purification. The 20 S Proteasome Assay Kit for Drug Discovery was used according to the supplier's protocol using Suc‐LLVY‐AMC (β5), Bz‐VGR‐AMC (β2) or Z‐LLE‐AMC (β1) as substrates (Enzo Life Sciences). Single point measurements of residual activity of proteasome activity were performed at a final concentration of 100 nM (n=3, β5c, β5i) or 1 μM (n=1, β1c, β2c, β5c, β5i, SI chapter 2a, Table S1). […] Inhibitors were prepared in 2‐fold concentration (cfinal=100 nM) and added to proteasomes (mfinal=200 ng/well). After 30 min incubation, substrate was added (cfinal=100 μM), incubated for 60 minutes and fluorescence was read using a Tecan M1000 microplate reader. Dose‐response curves were fitted to the equation Y=100/(1+10^((L°^gIC50−X)*HillSl°^pe)) using GraphPad Prism 7.02. IC50 values were determined from technical duplicates as mean value of three independent experiments.

[5] = biological target: T4, β1c subunit of isolated human 20S proteasome (Homo sapiens, UniProt P28072); assay: Proteasome inhibition assay (20 S Proteasome Assay Kit, Z‐LLE‐AMC); type: biochemical; conditions: c = 1 µM, n=1; read-out: Inhibition cCP β1
T4 construct: purchased Enzo Life Sciences
Experimental: as §1

[6] = system: Danio rerio embryos; assay: Danio rerio embryo toxicity assay (not dechorionated); type: in vivo
Experimental: Danio rerio embryo toxicity assay. Fish keeping protocols are approved by the Darmstadt administrative authority and documented. All fish were treated humanely. […] Embryos were decollated into separate wells containing a total volume of 200 μL and the inhibitor at the given concentration.

[7] = system: Danio rerio embryos; assay: Danio rerio escape response (neurotoxicity) assay, dechorionated embryos; type: in vivo; conditions: for C-Bend Amplitude, Difference between means / C-Bend duration, Difference between means / Number of movements per 100 ms, Difference between means / Number of total movements, Difference between means: versus control
Experimental: Danio rerio escape response assay. 24 hours past fertilization embryos were dechorionated and transferred into 96‐well plates containing 198 μL of E3 media at 26 °C. […] Incubation times were 24 h, 48 h and 72 h. Survival of the embryos was determined by visual analysis of heart‐beat. For recording the touch evoked escape response, embryos were transferred to a microscopy slide with cavity that is placed on a SL‐300 LED Soft Light (Dörr, Neu‐Ulm, Germany) under a MotionBlitz EoSens mini1‐1 MC1370 high speed camera (Mikrotron, Unterschleißheim, Germany, Figure S18). An escape response was triggered by a touch stimulus at the trunk of embryos using a small sewing needle, which is slightly blunted. For each embryo, a maximum of 50 stimuli was applied. […] No escape response was determined if only one embryo was alive at 96 hpf. Movement was recorded at 96 hpf at 500 frames per second for 3 seconds using the MotionBlitzDirector 2 software. Determination of the amplitude α defined by the body angle spanned between the head, yolk and tail using a MATLAB‐based software tool and plotted using GraphPad Prism 7.02.

[8] = 25 μM, 24 h, listed as bortezomib
[9] = 25 μM, 48 h, listed as bortezomib
[10] = 50 μM, 24 h, listed as bortezomib

CC(C)C[C@H](NC(=O)[C@H](Cc1ccccc1)NC(=O)c1cnccn1)B(O)O [Bortezomib 1, Bortezomib, reference compound]
IC50 [1]: 34 ± 5 nM | inhibition at 1 µM ([2]; c = 1 µM, n=1, read-out: Inhibition cCP β5): 98% | inhibition at 0.1 µM ([2]; c=100 nM, read-out: Rel. Inhibition β5c): 89% | inhibition at 1 µM ([3]; c = 1 µM, n=1, read-out: Inhibition iCP β5): 98% | inhibition at 0.1 µM ([3]; c=100 nM, read-out: Rel. Inhibition β5i): 85% | inhibition at 1 µM [4]: 5% | inhibition at 1 µM [5]: 80% | Survival of embryos (not dechorionated) ([6]; 1 µM, 24 h): 100% | Survival of embryos (not dechorionated) ([6]; 1 µM, 48 h): 100% | Survival of embryos (not dechorionated) ([6]; 1 µM, 72 h): 100% | Survival of embryos (not dechorionated) ([6]; 1 µM, 96 h): 100% | Survival of embryos (not dechorionated) ([6]; 5 µM, 24 h): 100% | Survival of embryos (not dechorionated) ([6]; 5 µM, 48 h): 100% | Survival of embryos (not dechorionated) ([6]; 5 µM, 72 h): 100% | Survival of embryos (not dechorionated) ([6]; 5 µM, 96 h): 80% | Survival of embryos (not dechorionated) ([6]; 10 µM, 24 h): 100% | Survival of embryos (not dechorionated) ([6]; 10 µM, 48 h): 100% | Survival of embryos (not dechorionated) ([6]; 10 µM, 72 h): 100% | Survival of embryos (not dechorionated) ([6]; 10 µM, 96 h): 100% | Survival of embryos (not dechorionated) ([6]; 25 µM, 24 h): 100% | Survival of embryos (not dechorionated) ([6]; 25 µM, 48 h): 100% | Survival of embryos (not dechorionated) ([6]; 25 µM, 72 h): 100% | Survival of embryos (not dechorionated) ([6]; 25 µM, 96 h): 80% | Reflex Duration ([7]; 25 µM, 24 h): 540,2 ± 136,6 ms | mean reflexes per stimuli ([7]; 25 µM, 24 h): 8% | C-Bend Amplitude ([7]; 25 μM, 24 h, listed as 1): 131,6 ± 21,3 ° | C-Bend Duration ([7]; 25 μM, 24 h, listed as 1): 32,67 ± 6,489 ms | Number of movements ([7]; 25 μM, 24 h, listed as 1): 11,56 ± 3,33 | Number of movements per 100 ms ([7]; 25 μM, 24 h, listed as 1): 1,916 ± 0,3504 | C-Bend Amplitude [7, 8]: 131.6±21.3 ° | C-Bend Duration [7, 8]: 32.7 ± 6.5 ms | Number of movements per 100 ms [7, 8]: 1.92±0.35 | C-Bend Amplitude, Difference between means ([7]; 25 µM, 24 h): 2,556 ± 25,09 | C-Bend duration, Difference between means ([7]; 25 µM, 24 h): 13 ± 6,633 | Number of movements per 100 ms, Difference between means ([7]; 25 µM, 24 h): -1,559 ± 0,4739 | Reflex Duration ([7]; 25 µM, 48 h): 289,3 ± 198,9 ms | mean reflexes per stimuli ([7]; 25 µM, 48 h): 2% | C-Bend Amplitude ([7]; 25 μM, 48 h, listed as 1): 6,889 ± 5,549 ° | C-Bend Duration ([7]; 25 μM, 48 h, listed as 1): 8,222 ± 6,654 ms | Number of movements ([7]; 25 μM, 48 h, listed as 1): 3,222 ± 2,259 | Number of movements per 100 ms ([7]; 25 μM, 48 h, listed as 1): 0,2435 ± 0,1615 | C-Bend Amplitude [7, 9]: 6.9±5.6 ° | Number of movements per 100 ms [7, 9]: 0.24±0.32 | C-Bend Amplitude, Difference between means ([7]; 25 µM, 48 h): -122,1 ± 14,37 | Number of movements per 100 ms, Difference between means ([7]; 25 µM, 48 h): -3,231 ± 0,3577 | Number of total movements, Difference between means ([7]; 25 µM, 48 h): -10,89 ± 3,622 | Number of movements per 100 ms ([7]; 50 μM, 24 h): 0±0 | Reflex Duration ([7]; 50 μM, 24 h): 0 ± 0 ms | responses to touch stimuli ([7]; 50 μM, 24 h, 50 stimuli per embryo, 150 stimuli total): 0 | C-Bend Amplitude ([7]; 50 μM, 24 h, listed as 1): 0 ± 0 ° | C-Bend Duration ([7]; 50 μM, 24 h, listed as 1): 0 ± 0 ms | Number of movements ([7]; 50 μM, 24 h, listed as 1): 0 ± 0 | C-Bend Amplitude [7, 10]: 0±0 ° | C-Bend Duration [7, 10]: 0 ± 0 ms | Number of movements [7, 10]: 0 | C-Bend Amplitude, Difference between means ([7]; 50 µM, 24 h): -129 ± 13,26 | C-Bend duration, Difference between means ([7]; 50 µM, 24 h): -19,67 ± 1,374 | Number of movements per 100 ms, Difference between means ([7]; 50 µM, 24 h): -3,475 ± 0,3192 | Number of total movements, Difference between means ([7]; 50 µM, 24 h): -14,11 ± 2,831 | overall survival at low doses ([7]; dechorionated embryos): 92% | Survived (embryos of 4) ([7]; dechorionated, 25 µM, 24 h): 4 | Survived (embryos of 4) ([7]; dechorionated, 25 µM, 48 h): 3 | Survived (embryos of 4) ([7]; dechorionated, 50 µM, 24 h): 4 | treated embryos dead ([7]; dechorionated, 50 μM 48 h to 72 h and 25 μM 72 h): 100%
